Assay results reported in PMC6272327, “Discovery of Metal Ions Chelator Quercetin Derivatives with Potent Anti-HCV Activities” (Molecules, 2015).
Like-named read-outs stand apart in the source and are kept apart here.

Experiments:
[1] = test system: HCV infectious virus J399EM; parameters: method as in PMID 22445328; settings: cited from earlier work; for inhibition against HCV: at 50 μM, previous results
[2] = biological target: HCV NS5B polymerase; parameters: method as in PMID 14695815, PMID 15481971, PMID 15149686; settings: HCV NS5B polymerase inhibition, Figures 1 and 2; cited from earlier work
[3] = test system: HCV infectious virus J399EM; test: Anti-HCV assay in authentic HCV infection/replication system (J399EM EGFP reporter virus) in Huh7.5.1 cells; assay type: cell-based, hepatitis C virus (JFH1-derived, genotype 2a); settings: for SI (selectivity index): ratio of CC50 to EC50, Huh7.5.1 cells; for EC50: Hepatitis C virus, Huh-7.5.1, 72 h
Description: (§1) The inhibition of HCV by all synthesized quercetin derivatives was evaluated following a previously reported procedure. All newly synthesized compounds were tested in authentic HCV infection/replication system in the human hepatoma cell lines Huh7.5.1 using mycophenolic acid (MPA) as control compound. The cytotoxicity effect of the test compounds was also evaluated in the same cell line by MTT method. Antiviral effect and cytotoxicity effect were summarized as EC50 and CC50 respectively, as well as the selective index (SI) which is the ratio of CC50 to EC50. The stability of quercetin-3-O-ester compounds were also tested in the same buffer as the antiviral activity assay at 37 °C and the hydrolysate was measured by HPLC.
The biological assays were performed following a previously reported procedure. The Huh7.5.1 cell line and the HCV infectious virus J399EM were kindly provided by Xin-Wen Chen, Wuhan Institute of Virology, Chinese Academy of Sciences. Huh7.5.1 cells were cultured in Dulbecco’s modified Eagle’s medium (DMEM) containing 10% (v/v) fetal bovine serum, 0.5 mg/mL G418, 100 IU/mL penicillin, and […].
J399EM is an infectious HCV virus derived from the JFH1 virus (genotype 2a) by insertion of enhanced green fluorescent protein (EGFP) into the HCV NS5A region. The establishment of the infectious J399EM HCV virus has been described previously. J399EM was propagated in Huh7.5.1 cells. Briefly, Huh7.5.1 cells were infected with J399EM at MOI = 0.1 and cultured for 4 days. Culture supernatant was collected and filtered through a 0.45 μm membrane and stored at −80 °C as virus stock. Virus titer was tested in Huh7.5.1 cells. Stocks were serially diluted, and the foci forming units (FFU) were determined as the number of fluorescent colonies formed in infected Huh7.5.1.
All the compounds were first dissolved in DMSO at 50 mM, and then diluted to various concentrations (50 μM, 25 μM, 12.5 μM, 6.3 μM and 3.1 μM). Approximately 1 × 10^4 Huh7.5.1 cells per well were plated in an opaque 96-well tissue culture plate (Costar 3904). The next day, the medium was replaced by J399EM virus at an MOI of 0.3. Four hours later, the virus inoculum was removed and medium containing different concentrations of compounds was added. After an additional 72 h of incubation, the culture medium was removed and the EGFP autofluorescence was measured by using a […] with excitation at 488 nm and emission at 516 nm. Compounds and controls were performed in duplicate and each experiment repeated independently at least twice.

[4] = Cell viability / cytotoxicity by MTT method; assay type: cell-based; settings: human
Description: as §1
After the EGFP signal was read, cell viability was measured in the same plate by the MTT [3-(4,5-dimethylthiazol-2-yl)-2,5-diphenyltetrazolium bromide; Sigma-Aldrich, St. Louis, MO, USA] method. Briefly, MTT (1 mg/mL) was dissolved in PBS. Cell culture supernatants were removed and replaced with MTT and further cultured for 4 h; cells were then lysed with 10% sodium dodecyl sulfate (SDS), 50% N,N-dimethylformamide, pH 7.2. OD570 values were read. The percentage of cell death was calculated against the control well without compounds.

[5] = test system: HCV RdRp; parameters: method as in PMID 25053847; settings: at the concentration of 20 μM in an enzyme assay; cited from earlier work

Compound	inhibition against HCV [1]	IC50 [2]	SI (selectivity index) [3]	CC50 ([4]; Huh7.5.1 cells, MTT, concentration required to reduce cell proliferation by 50%, average of duplicate determinations, read-out: CC50)	inhibition of HCV RdRp [5]	EC50 ([1]; anti-HCV activity of quercetin, earlier work of the authors)	EC50 [3]	CC50 [4]	melting point
O=c1c(O)c(-c2ccc(O)cc2)oc2cc(O)cc(O)c12 [kaempferol]	51.9%								
O=C(O)c1nc(-c2cccs2)nc(O)c1O [Compound 1d, dihydroxypyrimidine carboxylic acid]		2.6 µM							
O=c1c(O)c(-c2ccc(O)c(O)c2)oc2cc(O)cc(O)c12 [Compound 2, quercetin]			>2.5	> 50 µM	83.7%	19.8 µM			
COc1cccc(C(=O)Oc2c(-c3ccc(O)c(O)c3)oc3cc(O)cc(O)c3c2=O)c1 [Compound 4h, 2-(3,4-Dihydroxyphenyl)-5,7-dihydroxy-4-oxo-4H-chromen-3-yl 3-methoxybenzoate]			>3.2				15.6 ± 0.3 µM	> 50 µM	173 to 174 °C
meconic acid [Compound 1c]		2.3 µM							
O=c1c(O)c(-c2ccc(O)c(O)c2)oc2cc(OCc3ccc(Br)cc3)cc(O)c12 [Compound 3p, 7-((4-Bromobenzyl)oxy)-2-(3,4-dihydroxyphenyl)-3,5-dihydroxy-4H-chromen-4-one]			6.4				5.5 ± 1.5 µM	35.4 ± 1.6 µM	256 to 257 °C
CC(C)Oc1c(-c2ccc(O)c(O)c2)oc2cc(O)cc(O)c2c1=O [Compound 12b, 2-(3,4-Dihydroxyphenyl)-5,7-dihydroxy-3-isopropoxy-4H-chromen-4-one]			0.7				38.9 ± 2.5 µM	28.8 ± 2 µM	259 to 262 °C
N#Cc1cccc(C(=O)Oc2c(-c3ccc(O)c(O)c3)oc3cc(O)cc(O)c3c2=O)c1 [Compound 4i, 2-(3,4-Dihydroxyphenyl)-5,7-dihydroxy-4-oxo-4H-chromen-3-yl 3-cyanobenzoate]			>3.8				13.1 ± 1 µM	> 50 µM	142 to 143 °C
N#Cc1c(Cl)cc(Cl)cc1COc1cccc(C(=O)/C=C(\O)C(=O)O)c1 [Compound 1b]		0.045 µM							
O=c1c(O)c(-c2ccc(O)c(O)c2)oc2cc(OCc3cccc(Cl)c3)cc(O)c12 [Compound 3i, 7-((3-Chlorobenzyl)oxy)-2-(3,4-dihydroxyphenyl)-3,5-dihydroxy-4H-chromen-4-one]			7.2				3.8 ± 0.2 µM	27.2 ± 0.2 µM	260 to 261 °C
O=c1c(O)c(-c2ccc(O)c(O)c2)oc2cc(OCc3ccccc3Cl)cc(O)c12 [Compound 3c, 7-((2-Chlorobenzyl)oxy)-2-(3,4-dihydroxyphenyl)-3,5-dihydroxy-4H-chromen-4-one]			7.7				4.8 ± 0.1 µM	36.7 ± 0.7 µM	253 to 254 °C
O=C(Oc1c(-c2ccc(O)c(O)c2)oc2cc(O)cc(O)c2c1=O)c1cccc(Cl)c1 [Compound 4j, 2-(3,4-Dihydroxyphenyl)-5,7-dihydroxy-4-oxo-4H-chromen-3-yl 3-chlorobenzoate]							23 ± 3.2 µM	> 50 µM	> 300 °C
N#Cc1ccc(C(=O)Oc2c(-c3ccc(O)c(O)c3)oc3cc(O)cc(O)c3c2=O)cc1 [Compound 4n, 2-(3,4-Dihydroxyphenyl)-5,7-dihydroxy-4-oxo-4H-chromen-3-yl 4-cyanobenzoate]			>4.4				11.4 ± 2.3 µM	> 50 µM	196 to 197 °C
N#Cc1ccccc1COc1cc(O)c2c(=O)c(O)c(-c3ccc(O)c(O)c3)oc2c1 [Compound 3f, 2-(((2-(3,4-Dihydroxyphenyl)-3,5-dihydroxy-4-oxo-4H-chromen-7-yl)oxy)methyl)benzonitrile]			1.7				7.5 ± 0.5 µM	12.6 ± 0.1 µM	248 to 249 °C
O=c1c(O)c(-c2ccc(O)c(O)c2)oc2cc(OCc3cccc(F)c3)cc(O)c12 [Compound 3h, 2-(3,4-Dihydroxyphenyl)-7-((3-fluorobenzyl)oxy)-3,5-dihydroxy-4H-chromen-4-one]							6.3 ± 0.2 µM	44.5 ± 3.7 µM	243 to 245 °C
Cc1cccc(COc2cc(O)c3c(=O)c(O)c(-c4ccc(O)c(O)c4)oc3c2)c1 [Compound 3k, 2-(3,4-Dihydroxyphenyl)-3,5-dihydroxy-7-((3-methylbenzyl)oxy)-4H-chromen-4-one]			6.9				4.7 ± 0.4 µM	32.5 ± 0.7 µM	224 to 226 °C
O=c1c(O)c(-c2ccc(O)c(O)c2)oc2cc(OCc3ccccc3F)cc(O)c12 [Compound 3b, 2-(3,4-Dihydroxyphenyl)-7-((2-fluorobenzyl)oxy)-3,5-dihydroxy-4H-chromen-4-one]			3.1				5 ± 0.1 µM	15.4 ± 0.1 µM	254 to 255 °C
O=c1c(O)c(-c2ccc(O)c(O)c2)oc2cc(OCc3ccc(F)cc3)cc(O)c12 [Compound 3n, 2-(3,4-Dihydroxyphenyl)-7-((4-fluorobenzyl)oxy)-3,5-dihydroxy-4H-chromen-4-one]			6.2				5.1 ± 0.5 µM	31.9 ± 3.4 µM	254 to 255 °C
COc1ccc(C(=O)Oc2c(-c3ccc(O)c(O)c3)oc3cc(O)cc(O)c3c2=O)cc1 [Compound 4m, 2-(3,4-Dihydroxyphenyl)-5,7-dihydroxy-4-oxo-4H-chromen-3-yl 4-methoxybenzoate]			2.5				13.6 ± 2.1 µM	33.9 ± 3.7 µM	194 to 195 °C
O=c1c(O)c(-c2ccc(O)c(O)c2)oc2cc(OCc3ccccc3[N+](=O)[O-])cc(O)c12 [Compound 3g, 2-(3,4-Dihydroxyphenyl)-3,5-dihydroxy-7-((2-nitrobenzyl)oxy)-4H-chromen-4-one]			2.1				7 ± 1.1 µM	14.6 ± 0.5 µM	260 to 261 °C
O=C(O)/C(O)=C/C(=O)c1ccccc1 [Compound 1a]		5.7 µM							
O=c1c(O)c(-c2ccc(O)c(O)c2)oc2cc(OCc3ccccc3)cc(O)c12 [Compound 3a, 7-(Benzyloxy)-2-(3,4-dihydroxyphenyl)-3,5-dihydroxy-4H-chromen-4-one]			>5.8				8.7 ± 0.2 µM	> 50 µM	255 to 257 °C
COc1cc(-c2oc3cc(O)cc(O)c3c(=O)c2O)ccc1O [isorhamnetin]	47.3%								
O=c1c(O)c(-c2ccc(O)c(O)c2)oc2cc(OCc3ccccc3Br)cc(O)c12 [Compound 3d, 7-((2-Bromobenzyl)oxy)-2-(3,4-dihydroxyphenyl)-3,5-dihydroxy-4H-chromen-4-one]			6.8				5.5 ± 0.2 µM	37.4 ± 0.8 µM	248 to 249 °C
